Assay results reported in the NIST ThermoML archive (doi:10.1021/je030136n).

Experiment: xn = mol fraction of the nth substance listed
Conditions: Liquid, Pulse-echo method

CCCCCCC [heptane] + CCCO
Conditions	speed of sound [m/s]
308.07 K, 30400 kPa, x2 = 0	1290.3
308.07 K, 45590 kPa, x2 = 0	1368.7
308.08 K, 100 kPa, x2 = 0	1087.4
308.08 K, 15200 kPa, x2 = 0	1200.4
308.09 K, 121580 kPa, x2 = 0.7016	1655.6
308.09 K, 121580 kPa, x2 = 0.7986	1657.2
308.1 K, 121580 kPa, x2 = 0.3008	1657.5
308.1 K, 121580 kPa, x2 = 0.4992	1655.4
308.11 K, 30400 kPa, x2 = 0.6027	1293.7
308.11 K, 91190 kPa, x2 = 0	1562.4
308.11 K, 111450 kPa, x2 = 0.4992	1622.6
308.11 K, 111450 kPa, x2 = 0.7986	1625.7
308.12 K, 100 kPa, x2 = 0.3008	1086.3
308.12 K, 15200 kPa, x2 = 0.1008	1194.9
308.12 K, 60790 kPa, x2 = 0	1439
308.12 K, 75990 kPa, x2 = 0	1503.2
308.12 K, 91190 kPa, x2 = 0.7016	1555.2
308.13 K, 30400 kPa, x2 = 0.7986	1308.5
308.14 K, 45590 kPa, x2 = 0.6027	1368.1
308.14 K, 60790 kPa, x2 = 0.7986	1444.4
308.14 K, 91190 kPa, x2 = 0.3008	1552.6
308.14 K, 101320 kPa, x2 = 0.7986	1592.7
308.14 K, 111450 kPa, x2 = 0.3008	1624.1
308.15 K, 100 kPa, x2 = 0.7986	1128.4
308.15 K, 45590 kPa, x2 = 0.7986	1379.8
308.15 K, 60790 kPa, x2 = 0.3008	1431.2
308.15 K, 101320 kPa, x2 = 0.4992	1588.3
308.16 K, 45590 kPa, x2 = 0.3008	1362
308.16 K, 101320 kPa, x2 = 0.3008	1589.1
308.16 K, 101320 kPa, x2 = 0.7016	1590
308.16 K, 111450 kPa, x2 = 0.6027	1622.3
308.17 K, 75990 kPa, x2 = 0.3008	1494.3
308.17 K, 75990 kPa, x2 = 0.6027	1496.3
308.17 K, 111450 kPa, x2 = 0.7016	1623.4
308.17 K, 121580 kPa, x2 = 0	1668.6
308.18 K, 60790 kPa, x2 = 0.6027	1435
308.18 K, 75990 kPa, x2 = 0.4992	1495.2
308.18 K, 91190 kPa, x2 = 0.4992	1552.3
308.18 K, 91190 kPa, x2 = 0.6027	1552.8
308.18 K, 121580 kPa, x2 = 0.6027	1654.7
308.19 K, 30400 kPa, x2 = 0.3008	1284.8
308.19 K, 60790 kPa, x2 = 0.4992	1433
308.19 K, 75990 kPa, x2 = 0.7986	1503.4
308.2 K, 100 kPa, x2 = 0.4992	1095.2
308.2 K, 30400 kPa, x2 = 0.4992	1289.6
308.2 K, 45590 kPa, x2 = 0.4992	1365.2
308.2 K, 45590 kPa, x2 = 0.7016	1373.1
308.2 K, 75990 kPa, x2 = 0.1008	1497.7
308.2 K, 91190 kPa, x2 = 0.7986	1558.1
308.2 K, 101320 kPa, x2 = 0.1008	1593.7
308.21 K, 100 kPa, x2 = 0.6027	1103.5
308.21 K, 100 kPa, x2 = 0.7016	1114.7
308.21 K, 60790 kPa, x2 = 0.1008	1433.6
308.21 K, 60790 kPa, x2 = 0.7016	1438.8
308.21 K, 111450 kPa, x2 = 0	1634.6
308.22 K, 100 kPa, x2 = 0.1008	1082.2
308.22 K, 30400 kPa, x2 = 0.1008	1284.6
308.22 K, 30400 kPa, x2 = 0.7016	1300
308.22 K, 45590 kPa, x2 = 0.1008	1363.2
308.22 K, 91190 kPa, x2 = 0.1008	1556.7
308.22 K, 111450 kPa, x2 = 0.1008	1628.9
308.23 K, 75990 kPa, x2 = 0.7016	1499.1
308.23 K, 121580 kPa, x2 = 0.1008	1662.3
308.24 K, 101320 kPa, x2 = 0	1599.1
308.24 K, 101320 kPa, x2 = 0.6027	1588.1
313.08 K, 100 kPa, x2 = 0.7986	1109.7
313.08 K, 75990 kPa, x2 = 0.7986	1490.8
313.09 K, 30400 kPa, x2 = 0.4992	1273.3
313.09 K, 60790 kPa, x2 = 0.4992	1418.7
313.1 K, 100 kPa, x2 = 0	1066.1
313.1 K, 100 kPa, x2 = 0.6027	1083.9
313.1 K, 15200 kPa, x2 = 0	1182
313.1 K, 60790 kPa, x2 = 0.7986	1431
313.1 K, 75990 kPa, x2 = 0	1489.2
313.1 K, 121580 kPa, x2 = 0.7986	1645.9
313.11 K, 45590 kPa, x2 = 0.7986	1365.7
313.11 K, 91190 kPa, x2 = 0.7016	1542.7
313.11 K, 91190 kPa, x2 = 0.7986	1546.1
313.11 K, 101320 kPa, x2 = 0.7986	1580.9
313.12 K, 30400 kPa, x2 = 0	1273.3
313.12 K, 30400 kPa, x2 = 0.6027	1277.6
313.12 K, 45590 kPa, x2 = 0	1353
313.12 K, 45590 kPa, x2 = 0.3008	1346.5
313.12 K, 60790 kPa, x2 = 0	1424.3
313.12 K, 60790 kPa, x2 = 0.1008	1419
313.12 K, 75990 kPa, x2 = 0.6027	1482.9
313.12 K, 91190 kPa, x2 = 0.6027	1540
313.12 K, 101320 kPa, x2 = 0.6027	1575.9
313.12 K, 111450 kPa, x2 = 0.7986	1614.1
313.13 K, 45590 kPa, x2 = 0.1008	1347.6
313.13 K, 45590 kPa, x2 = 0.6027	1353
313.13 K, 91190 kPa, x2 = 0	1549
313.13 K, 101320 kPa, x2 = 0.7016	1578
313.13 K, 121580 kPa, x2 = 0	1656.4
313.14 K, 15200 kPa, x2 = 0.1008	1176.1
313.14 K, 60790 kPa, x2 = 0.6027	1420.9
313.14 K, 75990 kPa, x2 = 0.1008	1483.7
